The results in this text go back to patent US8962627B2, “Oxime derivatives and their use as allosteric modulators of metabotropic glutamate receptors” (Prestwick Chemical, Inc., priority 2009, dated 2015).

SMILES strings stand for the structures. Structures can show the parent of a compound that is named as a salt.

T1 sequence (Q14833 33-912): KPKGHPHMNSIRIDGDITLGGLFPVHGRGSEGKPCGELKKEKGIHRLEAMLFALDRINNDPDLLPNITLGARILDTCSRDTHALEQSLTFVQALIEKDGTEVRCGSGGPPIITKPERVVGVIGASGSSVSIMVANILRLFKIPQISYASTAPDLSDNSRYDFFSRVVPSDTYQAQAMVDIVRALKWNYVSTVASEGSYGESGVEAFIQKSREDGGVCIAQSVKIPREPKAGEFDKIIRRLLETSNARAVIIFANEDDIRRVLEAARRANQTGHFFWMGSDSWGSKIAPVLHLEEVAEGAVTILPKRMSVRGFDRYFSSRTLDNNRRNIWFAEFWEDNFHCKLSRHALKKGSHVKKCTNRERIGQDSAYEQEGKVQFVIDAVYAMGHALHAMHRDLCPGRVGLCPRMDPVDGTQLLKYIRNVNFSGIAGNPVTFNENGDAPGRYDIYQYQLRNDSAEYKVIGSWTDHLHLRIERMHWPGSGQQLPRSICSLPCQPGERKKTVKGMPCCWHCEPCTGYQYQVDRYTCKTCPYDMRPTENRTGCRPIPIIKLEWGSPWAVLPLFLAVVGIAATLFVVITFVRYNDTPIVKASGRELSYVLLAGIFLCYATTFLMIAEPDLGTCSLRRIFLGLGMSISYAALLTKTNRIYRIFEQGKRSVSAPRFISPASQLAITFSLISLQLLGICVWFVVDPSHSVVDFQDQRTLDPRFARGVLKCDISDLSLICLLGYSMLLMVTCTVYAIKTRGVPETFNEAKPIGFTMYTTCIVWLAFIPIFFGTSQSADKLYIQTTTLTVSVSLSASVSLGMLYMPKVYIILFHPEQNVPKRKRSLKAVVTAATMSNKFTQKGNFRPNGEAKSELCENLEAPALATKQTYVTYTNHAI

One data set concerns the target T1, human mGluR4 transiently over-expressed in HEK-293 cells (Homo sapiens, UniProt Q14833).
T1 construct: expressed in transfected cells; host or cells: HEK-293 cells, transient co-transfection by electroporation
As to the kind of experiment: Human mGluR4 positive allosteric modulator evaluation using Ca++ functional assay. The class given is cell-based. To be noted: HEK-293 cells co-transfected with hmGluR4 and chimeric G protein; EC10 glutamate; intracellular calcium (Fluo4AM); read-out: mean EC50 of agonist/positive allosteric modulator activity on mGluR4. Here is the method:
Human mGluR4 Positive Allosteric Modulator Evaluation Using Ca^++ Functional Assay
Compounds of the present invention were tested successively for their agonist and positive allosteric modulator activities on human mGluR4 transiently over-expressed in HEK-293 cells. They exert agonist activity if, by themselves in absence of the endogenous glutamate, they are able to activate mGluR4; and they exert positive allosteric modulator activity if they increase the action of the endogenous glutamate.
Cell Culture and Transfection
HEK-293 cells were maintained in Modified Eagle's Medium supplemented with 10% Foetal Calf Serum, 1% Penicillin/Streptomycin and 1% non essential amino acids at 37° C./5% CO2.
Cells were co-transfected by electroporation with two DNA plasmids encoding hmGluR4 and a chimeric G protein allowing redirection of the activation signal to intracellular calcium pathway. Cells were plated after transfection onto polyornithine coated, clear bottom, black-walled, 96-well plates and cultured for 24 h.
Calcium Assay EC50 Determination
Receptor activity was detected by changes in intracellular calcium measured using the fluorescent Ca^2+ sensitive dye, Fluo4AM (Molecular Probes).
The day of the assay, medium was aspirated and replaced during 3 hours by medium without serum supplemented with 1% Glutamax, 1% Penicillin/Streptomycin and 1% non essential amino acids. Then, cells were washed with freshly prepared buffer B (HBSS 1×(PAA), Hepes 20 mM, MgSO4-7H2O 1 mM, Na2CO3 3.3 mM, CaCl2-2H2O 1.3 mM, 0.5% BSA, Probenecid 2.5 mM) and loaded at 37° C. in 5% CO2 for 1.5 hours with buffer B containing 1 μM Fluo4AM 0.1 mg/mL Pluronic Acid, 7 μg/mL Glutamate Pyruvate Transaminase and 2 mM sodium pyruvate. Afterwards cells were washed twice with buffer B and 50 μL of this buffer were added to each well. Addition of compounds and intracellular Ca^2+ measurements (excitation 485 nm, emission 525 nm) were performed by the fluorescence microplate reader FlexStation (Molecular Devices).
Agonist and positive allosteric modulator activities of compounds were consecutively evaluated on the same cells plate. Agonist activity was first tested during 60 s with the addition of compound alone on the cells. Then, the cells were stimulated by an EC10 glutamate concentration and fluorescence recorded for additional 60 s. EC10 glutamate concentration is the concentration giving 10% of the maximal glutamate response. Agonist and/or positive allosteric modulator activity(ies) were evaluated in comparison to basal signal evoked by EC10 glutamate alone.
For EC50 determination, a dose-response test was performed using 6 to 9 concentrations of each compound of the invention. Dose-response curves were fitted using the sigmoidal dose-response (variable slope) analysis in GraphPad Prism program (Graph Pad Inc) and EC50 of agonist/positive allosteric modulator activity was calculated. Dose-response experiments were all performed in duplicate, two times independently.
Background: Calcium assays in cells follow changes in intracellular calcium, usually with a dye or a luminescent sensor.
Consider `CNc1cccc(C#Cc2ccc3c(=NO)cc(-c4cc5ccccc5cn4)oc3c2)c1` (mixture of isomers) [Example 51, 2-Isoquinolin-3-yl-7-{3-methylaminophenylethynyl}-chromen-4-one oxime], for which the EC50 was under 1 µM.
Consider `C#Cc1ccc2c(=NO)cc(-c3cc4ccccc4cn3)oc2c1` (mixture of isomers) [Example 23, 7-ethynyl-2-isoquinolin-3-yl-chromen-4-one oxime], for which the EC50 was under 1 µM.
On the same count and under the same terms, the figure for `ON=c1cc(-c2cc3cccn3cn2)oc2ccc(OCCN3CCC(C(F)(F)F)CC3)cc12` [Example 113, 2-pyrrolo[1,2-c]pyrimidin-3-yl-6-[2-(4-trifluoromethyl-piperidin-1-yl)-ethoxy]chromen-4-one oxime, hydrochloride] is under 1 µM; for `ON=c1cc(-c2cc3cccn3cn2)oc2ccc(OCCCOc3cccc(F)c3)cc12` [Example 163, 6-[3-(3-Fluoro-phenoxy)-propoxy]-2-pyrrolo[1,2-c]pyrimidin-3-yl-chromen-4-one oxime] it is under 1 µM.
With `O=C(COc1ccc2oc(-c3cc4cccn4cn3)cc(=NO)c2c1)Nc1ccc(F)cn1` [Example 152, N-(5-Fluoro-pyridin-2-yl)-2-{4-hydroxyimino-2-pyrrolo[1,2-c]pyrimidin-3-yl-4H-chromen-6-yloxy}-acetamide], the EC50 is under 1 µM.
As to `CCN1CCN(CCOc2ccc3oc(-c4cc5cccn5cn4)cc(=NO)c3c2)CC1.Cl.Cl` [Example 121, 6-[2-(4-ethyl-piperazin-1-yl-ethoxy]-2-pyrrolo[1,2-c]pyrimidin-3-yl-chromen-4-one oxime, dihydrochloride], the EC50 was under 5 µM.
Turning to `ON=c1cc(-c2cc3cccn3cn2)oc2ccc(/C=C\CN3CCOCC3)cc12` [Example 107], the EC50 was under 1 µM.
On the same count and under the same terms, the figure for `ON=c1cc(-c2cc3cccn3cn2)oc2ccc(OCCN3CCC(F)(F)CC3)cc12` [Example 103, hydrochloride] is under 1 µM; for `ON=c1cc(-c2cc3sccc3cn2)oc2ccc(OCCc3ccc(F)cc3)cc12` [Example 130, 6-[2-(4-Fluoro-phenyl)-ethoxy]-2-thieno[3,2-c]pyridin-6-yl-chromen-4-one oxime] it is under 1 µM.
Same read-out and setting: the figure for `C[C@@H]1CN(CCOc2ccc3oc(-c4cc5cccn5cn4)cc(=NO)c3c2)C[C@H](C)O1` [Example 112, 6-[2-(cis-2,6-dimethyl-morpholin-4-yl)-ethoxy]-2-pyrrolo[1,2-c]pyrimidin-3-yl-chromen-4-one oxime, hydrochloride] is under 1 µM.
As for `ON=c1cc(-c2cc3cccn3cn2)oc2ccc(OCCN3C[C@@H]4C[C@H]3CO4)cc12` [Example 111, 6-[(1S,4S)-2-(2-oxa-5-aza-bicyclo[2.2.1]hept-5-yl)-ethoxy]-2-pyrrolo[1,2-c]pyrimidin-3-yl-chromen-4-one oxime, hydrochloride], the EC50 is under 1 µM.
Take `ON=c1cc(-c2cc3nccn3cn2)oc2ccccc12` (mixture of isomers) [Example 73, 2-Imidazo[1,2-c]pyrimidin-7-yl-chromen-4-one oxime]: the EC50 is under 1 µM.
With `ON=c1cc(-c2cc3ccccc3cn2)oc2cc(CCc3ccccc3)ccc12` (mixture of isomers) [Example 22, 2-isoquinolin-3-yl-7-phenethyl-chromen-4-one oxime], the EC50 is under 5 µM.
Take `Cc1c(-c2cc3ccccc3cn2)oc2ccccc2c1=NO` [Example 71, 2-Isoquinolin-3-yl-3-methyl-chromen-4-one oxime]: the EC50 is under 5 µM.
`ON=c1cc(-c2cc3cccn3cn2)oc2ccc(O)cc12` [Example 81, 6-Hydroxy-2-pyrrolo[1,2-c]pyrimidin-3-yl-chromen-4-one oxime]: the EC50 is under 1 µM.

Test system in another data set: not given
Assay: not given
Conditions: not given
As to `ON=c1cc(-c2ncc3ccccc3n2)oc2ccccc12` [Example 110, 2-quinazolin-2-yl-chromen-4-one oxime], the melting point (in general, the temperature, or range, at which the solid turns liquid) was in the range of 239 to 241 °C.
For `ON=c1cc(-c2cc3ccc(F)cc3cn2)oc2ccccc12` [Example 12, 2-(7-fluoro-isoquinolin-3-yl)-chromen-4-one oxime], the melting point lay within 233 to 235 °C.
